From patent publication US20020169111A1, “Reversal of multidrug resistance in human colon carcinoma cells” (American Cyanamid Comany, priority 1998, published 2002)
Where two headings read alike, the source gives them in different places.

Legend:
MCF-7/BCRP cells [1] = type: cell-based, human
Method: (§1) All incubations were carried out in the absence or presence of FTC (1 or 5 μM).

MCF-7 cells = type: cell-based, human; conditions: 1 μM daunorubicin, 1 hour retention phase
Method: as §1

S1-M1-3.2 cells [2] = assay: Cytotoxicity of antitumor agents, 3-day SRB assay, mitoxantrone-selected cells; type: cell-based, human; conditions: relative to S1; 2-7 independent experiments
Method: Cells were cultured for three days in the presence of the antitumor agent (triplicate points per dose). Following a 3-day growth period, cells were fixed in 10% trichloroacetic acid (TCA) for 1 hour, washed extensively with water, and cell-associated protein was stained using 0.1% sulforhodamine B (SRB), a protein binding reagent [Rubinstein et al., Journal of the National Cancer Institute 82, 1113-1118 (1990) and Skehan et al., Journal of the National Cancer Institute 82, 1107-1112 (1990)]. Excess reagent was removed by washing plates in 5% acetic acid, the dye was solubilized in 10 mM Tris base, and absorbance determined in a UV Max spectrophotometer (Molecular Devices, Menlo Park, Calif.) at 540 nm. Cell survival was estimated relative to control wells (no drugs). EC50 values (μM) were estimated from cytotoxicity curves. For S1, the values shown [mean ±SE (number of independent observations)] are taken from Zhang et al., “P-Glycoprotein Mediates Profound Resistance to Bisantrene,” Oncol. Res., 6:291-301, 1994. Values for S1-M1-3.2 are compiled from 2-7 independent experiments.

S1-B1-20 cells [3] = tested on: S1-B1-20 cells
Method: (§7) Cell-associated radioactivity was measured at the indicated times. Values are mean percentage of drug remaining (triplicate determinations) ± standard deviation.
(§8) After 1 hour, cells were prepared for analysis by scintillation counting. Values shown are mean percentage of drug remaining (triplicate determinations) ± standard deviation.

S1 cells [4] = tested on: S1 cells
Method: as §7, §8

S1-M1-3.2 cells [5] = tested on: S1-M1-3.2 cells
Method: as §7, §8

S1-M1-3.2 cells [6] = assay: Dose modifying factor of FTC (SRB, EC50 ratio); type: cell-based, human; conditions: S1-M1 versus S1, no reversal agent
Method: (§2) Cell survival was estimated after 3 days using the SRB assay. Cell survival was determined by the SRB assay and EC50 values were determined from toxicity curves. The dose modifying factor (DMF) is the ratio of EC50 values obtained in the absence and presence of reversal agent. Maximum DMF values (shown in parentheses) is the ratio of EC50 values of resistant and sensitive cells in the absence of the reversal agent. This value is obtained when resistance is reversed completely, and is the equivalent of the relative resistance.

MCF-7/BCRP cells [7] = assay: Dose modifying factor of FTC in BCRP-transfected cells; type: cell-based, human; conditions: MCF-7/BCRP versus MCF-7, no reversal agent
Method: Cell survival was estimated after 3 days using the SRB assay, and EC50 values were determined from cytotoxicity curves.

MCF 7/AdVp cells = type: cell-based, human
Method: as §2
(§3) In order to determine the utility of FTC as a reversal agent in other multidrug resistant cell lines, FTC was tested in two breast cancer cell lines which show a multidrug resistant phenotype with no overexpression of P-gp or MRP.

MCF 7/mtxR cells = type: cell-based, human
Method: as §2, §3

HL-60/AR cells = type: cell-based
Method: as §2

MCF/MX cells = assay: Resistance of MCF/MX cells to camptothecins; type: cell-based
S1-B1-20 cells [8] = assay: Drug accumulation analysis with [14C] drug; type: cell-based, human; conditions: [14C] drug, 90 minutes at 37° C.
Method: (§4) To determine the mechanism of resistance, drug resistant and sensitive cells were incubated with radioactive analogues of antitumor agents and cell-associated radioactivity was measured by scintillation counting. Alternatively, surrogates of chemotherapeutic drugs may be used. The surrogate has no antitumor activity itself but interacts with the cancer cell proteins such as P-gp or MRP in a similar manner as an anticancer drug. The surrogate chemotherapeutic drug would have a property such as fluorescence which is useful for determining the drug resistance mechanisms such as efflux.
(§5) Cells were plated in 60 mm dishes (1×10^6 cells per dish) or in 24 well clusters (2 ×10^5 cells per well) and allowed to grow for 1-2 days. […] Drugs used were [^14C]-mitoxantrone (Amersham, 1 or 5 μM; specific activity 66 mCi/mmol) or [^14C]-doxorubicin (Amersham, 0.5 or 3 μM; specific activity 50-62 mCi/mmol ). […] Unbound drug was removed by washing twice in ice-cold phosphate buffered saline (PBS), cells were solubilized in 2 N NaOH at 37° C. for 1-2 hours, and analyzed by scintillation counting. Results were normalized to cell protein content measured by a Lowry assay.
(§6) The cells were then washed, solubilized, and counted in a scintillation counter. Values are mean disintegration per minute per μg protein of triplicate determinations ± standard deviation.

S1-M1-3.2 cells [9] = assay: Drug accumulation analysis with [14C] drug; type: cell-based, human; conditions: for Drug Accumulation, no FTC: S1-M1-3.2 cells, [14C] drug, 90 minutes at 37° C.; for drug accumulated compared with the parental cells: S1-M1-3.2 versus S1, no FTC
Method: as §4, §5, §6

S1 cells [10] = assay: Drug accumulation analysis with [14C] drug; type: cell-based, human; conditions: [14C] drug, 90 minutes at 37° C.
Method: as §4, §5, §6

S1-M1-3.2 cells [11] = conditions: for Toxicity (>20%): compound alone, concentration that causes greater than 20% cell death of S1-M1-3.2 cells; for IC50: read-out: IC50 (μM), resensitizing S1-M1-3.2 cells to mitoxantrone, with 3.2 μM mitoxantrone, 50% cancer cell death
Method: One of the first reported molecules with reversing activity was verapamil, a calcium channel blocker. […] Cells were plated into 96-well dishes (100 μl/well) in growth medium supplemented with 5% FBS. […] Reversal agents were tested from 0.1-80 μM (triplicate points per dose). In parallel wells, cells were grown in the presence of the reversal agent alone.
The Difference Score is the difference in the percentage of cells surviving when the drug was given alone minus the percentage of cells surviving when the drug was given along with the antitumor agent.
Cell survival was estimated using the Sulforhodamine (SRB) assay.

[12] = 1 hour efflux with energy depletor, growth medium = 100

## COc1cccc2c1C(=O)c1c(O)c3c(c(O)c1C2=O)C[C@@](O)(C(C)=O)C[C@@H]3O[C@H]1C[C@H](N)[C@H](O)[C@H](C)O1 [daunorubicin, reference compound]
MCF-7/BCRP cells [1]
  daunorubicin retention, Channel Number (fluorescence units), No FTC: 6.8 ± 0.33 fluorescence units
MCF-7 cells
  daunorubicin retention, Channel Number (fluorescence units), No FTC: 15.2 ± 0.39 fluorescence units

## CC[C@]1(O)C[C@@H]2CN(CCc3c([nH]c4ccccc34)[C@@](C(=O)OC)(c3cc4c(cc3OC)N(C)[C@H]3[C@@](O)(C(=O)OC)[C@H](OC(C)=O)[C@]5(CC)C=CCN6CC[C@]43[C@@H]65)C2)C1 [vinblastine]
S1-M1-3.2 cells [2]
  S1-M1-3.2 (relative resistance): 3

## [N-]=[N+]=[N-].[Na+] [PBS + sodium azide, sodium azide]
S1-B1-20 cells [3]; [12]
  % mitoxantrone remaining in cell line: 217 ± 6%
S1 cells [4]; [12]
  % mitoxantrone remaining in cell line: 137 ± 14%
S1-M1-3.2 cells [5]; [12]
  % mitoxantrone remaining in cell line: 285 ± 43%

## CC[C@@]1(O)C(=O)OCc2c1cc1n(c2=O)Cc2cc3c(CN(C)C)c(O)ccc3nc2-1 [topotecan, reference compound]
S1-M1-3.2 cells [6]
  Maximum DMF (in parentheses; relative resistance to the antitumor agent): 41
MCF-7/BCRP cells [7]
  Maximum DMF (in parentheses; relative resistance to the antitumor agent): 3.3
S1-M1-3.2 cells [2]
  S1-M1-3.2 (relative resistance): 41

## CC(=O)O[C@H]1C(=O)[C@@]2(C)[C@H]([C@H](OC(=O)c3ccccc3)[C@]3(O)C[C@H](OC(=O)[C@H](O)[C@@H](NC(=O)c4ccccc4)c4ccccc4)C(C)=C1C3(C)C)[C@]1(OC(C)=O)CO[C@@H]1C[C@@H]2O [paclitaxel, reference compound]
S1-M1-3.2 cells [6]
  Maximum DMF (in parentheses; relative resistance to the antitumor agent): 6
MCF-7/BCRP cells [7]
  Maximum DMF (in parentheses; relative resistance to the antitumor agent): 2.7
MCF 7/AdVp cells
  Maximum DMF (in parentheses; relative resistance to the antitumor agent): 0.7 (10.7)
MCF 7/mtxR cells
  Maximum DMF (in parentheses; relative resistance to the antitumor agent): 1.1 (2.0)
S1-M1-3.2 cells [2]
  S1-M1-3.2 (relative resistance): 6
HL-60/AR cells
  Maximum DMF (in parentheses; relative resistance to the antitumor agent): 2.6 (5.1)

## COc1cc([C@@H]2c3cc4c(cc3[C@@H](O[C@@H]3O[C@@H]5CO[C@@H](C)O[C@H]5[C@H](O)[C@H]3O)[C@H]3COC(=O)[C@H]23)OCO4)cc(OC)c1O [etoposide]
S1-M1-3.2 cells [2]
  S1-M1-3.2 (relative resistance): 6

## COc1cc(NS(C)(=O)=O)ccc1Nc1c2ccccc2nc2ccccc12 [m-AMSA]
S1-M1-3.2 cells [2]
  S1-M1-3.2 (relative resistance): 11

## COc1cc([C@@H]2c3cc4c(cc3[C@@H](O[C@@H]3O[C@@H]5CO[C@@H](c6cccs6)O[C@H]5[C@H](O)[C@H]3O)[C@H]3COC(=O)[C@H]23)OCO4)cc(OC)c1O [VM-26, teniposide]
S1-M1-3.2 cells [2]
  S1-M1-3.2 (relative resistance): 18

## CC[C@@]1(O)C(=O)OCc2c1cc1n(c2=O)Cc2cc3ccccc3nc2-1 [camptothecin]
MCF/MX cells
  resistance of MCF/MX cells: 3.2 fold
S1-M1-3.2 cells [2]
  S1-M1-3.2 (relative resistance): 2

## CC[C@@]1(O)C(=O)OCc2c1cc1n(c2=O)Cc2cc3c(N)cccc3nc2-1 [9-amino camptothecin]
MCF/MX cells
  resistance of MCF/MX cells: 120 fold

## C(=N\NC1=NCCN1)/c1c2ccccc2c(/C=N/NC2=NCCN2)c2ccccc12 [bisantrene]
S1-M1-3.2 cells [2]
  S1-M1-3.2 (relative resistance): 24

## O=C1c2c(O)ccc(O)c2C(=O)c2c(NCCNCCO)ccc(NCCNCCO)c21 [mitoxantrone]
S1-B1-20 cells [3]; 0 h
  % mitoxantrone remaining over time (hours): 100 ± 5%
S1-B1-20 cells [3]; 0.5 h
  % mitoxantrone remaining over time (hours): 58 ± 4%
S1-B1-20 cells [3]; 1 h
  % mitoxantrone remaining over time (hours): 45 ± 10%
S1-B1-20 cells [3]; 2 h
  % mitoxantrone remaining over time (hours): 41 ± 3%
S1-B1-20 cells [3]; 4 h
  % mitoxantrone remaining over time (hours): 39 ± 3%
S1 cells [4]; 0 h
  % mitoxantrone remaining over time (hours): 100 ± 6%
S1 cells [4]; 0.5 h
  % mitoxantrone remaining over time (hours): 99 ± 17%
S1 cells [4]; 1 h
  % mitoxantrone remaining over time (hours): 101 ± 3%
S1 cells [4]; 2 h
  % mitoxantrone remaining over time (hours): 100 ± 11%
S1 cells [4]; 4 h
  % mitoxantrone remaining over time (hours): 95 ± 13%
S1-B1-20 cells [8]
  Drug Accumulation, no FTC: 1086 ± 100 DPM/μg protein
S1-M1-3.2 cells [9]
  Drug Accumulation, no FTC: 996 ± 57 DPM/μg protein
  drug accumulated compared with the parental cells: 41%
S1 cells [10]
  Drug Accumulation, no FTC: 2430 ± 252 DPM/μg protein
S1-M1-3.2 cells [6]
  Maximum DMF (in parentheses; relative resistance to the antitumor agent): 1435
MCF-7/BCRP cells [7]
  Maximum DMF (in parentheses; relative resistance to the antitumor agent): 35.1
S1-M1-3.2 cells [5]; 0 h
  % mitoxantrone remaining over time (hours): 100 ± 2%
S1-M1-3.2 cells [5]; 0.5 h
  % mitoxantrone remaining over time (hours): 51 ± 6%
S1-M1-3.2 cells [5]; 1 h
  % mitoxantrone remaining over time (hours): 44 ± 1%
S1-M1-3.2 cells [5]; 2 h
  % mitoxantrone remaining over time (hours): 45 ± 3%
S1-M1-3.2 cells [5]; 4 h
  % mitoxantrone remaining over time (hours): 31 ± 2%
MCF 7/mtxR cells
  Maximum DMF (in parentheses; relative resistance to the antitumor agent): 114 (2090)
S1-M1-3.2 cells [2]
  S1-M1-3.2 (relative resistance): 1435
HL-60/AR cells
  Maximum DMF (in parentheses; relative resistance to the antitumor agent): 3.3 (53)

## O=C1[C@@H]2Cc3c([nH]c4ccccc34)[C@@H](CCCCCc3ccccc3)N2C(=O)[C@@H]2CCCN12 [Example 23a, (5aS,12R,14aS)-12-(5-phenylpentyl)-1,2,3,5a,6,11,12,14a-octahydro-5H,14H-pyrrolo[1″,2″:4′,5′]pyrazino[2′,1′:6,1]pyrido[3,4-b]indole-5,14-dione]
S1-M1-3.2 cells [11]
  Toxicity (>20%): 7.5 µM
  IC50: 0.3 µM

## CC(C)CC1c2[nH]c3ccccc3c2CC2C(=O)N3CCCCC3C(=O)N21 [Example 20b, (6aS,13S,15aR)-13-isobutyl-1,2,3,4,6a,7,12,13,15a-nonahydro-6H,15H-pyrido[1″,2″:4′,5′]pyrazino[2′,1′:6,1]pyrido[3,4-b]indole-6H,15H-dione]
S1-M1-3.2 cells [11]
  Toxicity (>20%): 50.0 µM
  IC50: 2 µM

## COc1cccc2c1C(=O)c1c(O)c3c(c(O)c1C2=O)C[C@@](O)(C(=O)CO)C[C@@H]3O[C@H]1C[C@H](N)[C@H](O)[C@H](C)O1 [doxorubicin, reference compound]
MCF-7/BCRP cells [1]; MCF-7/BCRP, 1 μM [14C]-doxorubicin, 1 hour retention phase
  [^14C] doxorubicin retention, No FTC: 5.4 ± 0.48 DPM per microgram protein
S1-B1-20 cells [8]
  Drug Accumulation, no FTC: 23 ± 1 DPM/μg protein
S1-M1-3.2 cells [9]
  Drug Accumulation, no FTC: 19 ± 3 DPM/μg protein
  drug accumulated compared with the parental cells: 17%
S1 cells [10]
  Drug Accumulation, no FTC: 114 ± 11 DPM/μg protein
